Key:
[1] = tested on: Treg cells; assay: Treg expansion in activated human PBMC cultures (anti-CD3/anti-CD28, flow cytometry); type: cell-based; details: anti-CD3 and anti-CD28, 96 hours, control 0%
Method: (§1) Human PBMCs and mouse splenocyte in vitro stimulation and treatment: Human peripheral blood mononuclear cells (PBMCs) and mouse splenocytes from donors were stimulated in vitro with anti-CD3 and anti-CD28 antibodies. The stimulated cells were simultaneously treated with compounds for 96 hours. The T cells were profiled for different cell surface and intracellular markers and proliferation by flow cytometry.
(§2) Flow cytometry analysis: Flow cytometry analysis was performed to quantify cell surface and intracellular markers expression and measure cell division index.
Viability staining: Cells were transferred into a 96 well conical bottom plate and washed with serum free PBS1×. Cells were incubated with Zombie NIR (Biolegend #423105)+FC block ([…]) for 20 minutes at 4° C. Cells were washed with staining medium (SM) (1×HBSS, 2.5 mM EDTA, 2% NBS
Cell surface marker staining: Cells were stained with antibodies against cell surface markers (CD3, CD4, CD8, CD25, Biolegend or ThermoFisher) for 20 minutes at 4° C. Cells were washed with SM before continuing with nuclear staining.
(§3) FOXP3 nuclear staining: Cells were fixed and permeabilized with Foxp3 Transcription Factor Staining Buffer Set (ThermoFisher #00-5523) for 20 minutes at room temperature. […] Results are finally analysed with the software FlowJo v.10.7.1.

[2] = tested on: IL-6; assay: Cytokine analysis in allogeneic bone marrow transplant (LEGENDplex): IL-6; type: in vivo, mouse; details: allo-BM+splenocyte transplanted mice, day 36, vs vehicle; FIG. 6
Method: (§4) Allogeneic Bone marrow transplant: Recipient Balb/c mice were irradiated twice 3.75Gy (T=0 and T=4 h) in an X-ray source irradiator before transplantation at T=8 h. Treatment with antibiotics (Nopil) and analgesic (Dafalgan) was supplemented to drinking water 4 days before injection. Irradiated recipient Balb/c mice were transplanted with 5 million T cell depleted bone marrow+1 million splenocytes. Allogeneic recipient animals were treated with vehicle or 6-(4-tert-butylphenoxy)pyridin-3-amine subcutaneously at 20 mg/kg for two days immediately after allo-BM transplant, given a 10 days treatment holiday to recover body weight loss due to whole body irradiation and then treatment continued at 20 mg/kg. […] Animals were monitored for symptoms of GvHD development (severe body weight loss, alopecia and diarrhea.
(§5) Cytokine analysis in allogeneic Bone marrow transplant: The recipient animals were bled on day 36 and blood plasma was extracted to determine inflammatory cytokine concentration (IFNγ, IL-6, IL-17a) by LEGENDplex™ multiplexed assay.

[3] = tested on: Treg cells; assay: Treg expansion in activated mouse splenocytes in vitro; type: cell-based; details: mouse splenocytes stimulated with anti-CD3 and anti-CD28 for 96 hours; FIG. 1
Method: Mouse splenocytes were harvested and single cell suspension stimulated in vitro with anti-CD3 and anti-CD28 antibodies for 96 hours. Treatment with 6-(4-tert-butylphenoxy)pyridin-3-amine, during the same interval of time, caused an expansion of immunosuppressive regulatory T cells (Tregs). Each bar represents the mean±SD (N=3 replicates).
as §1, §2
Viability staining: Cells were transferred into a 96 well conical bottom plate and washed with serum free PBS1×. Cells were incubated with Zombie NIR (Biolegend #423105)+FC block ([…]) for 20 minutes at 4° C. […]
as §3

[4] = tested on: NSG mice injected with human PBMCs (GvHD); assay: Humanized GvHD mouse model, ex vivo pre-treated PBMCs plus in vivo treatment; details: sum of individual scores; label = ex vivo PBMC treatment/in vivo treatment; DMSO/Vehicle 7.8
Method: Humanized GvHD mouse model: 6-8 weeks old NSG mice were intraperitoneally injected with 10 million human peripheral blood mononuclear cells (PBMCs) as below:
A cumulative GvHD clinical score was calculated by addition of scores for individual parameters (e.g. cumulative score=BWL+posture+activity+fur texture+skin integrity+paleness).
Ex-vivo pre-treatment of PBMCs and in-vivo treatment of mice: Human PBMCs were ex-vivo treated with either DMSO or 6-(4-tert-butylphenoxy)pyridin-3-amine and then intraperitoneally injected into NSG mice. Mice were in vivo treated with different compounds as below: • i. DMSO ex vivo hPBMCs treatment (7 hrs), plus vehicle in vivo treatment • ii. DMSO ex vivo hPBMCs treatment (7 hrs), plus 6-(4-tert-butylphenoxy)pyridin-3-amine in vivo treatment for 3 days • iii. 6-(4-tert-butylphenoxy)pyridin-3-amine ex vivo hPBMCs treatment (7 hrs), plus 6-(4-tert-butylphenoxy)pyridin-3-amine in vivo treatment for 3 days • iv. DMSO ex vivo PBMCs treatment (7 hrs) plus Ruxolitinib in vivo treatment for 3 days • v. 6-(4-tert-butylphenoxy)pyridin-3-amine ex vivo hPBMCs treatment (7 hrs), plus Ruxolitinib in vivo treatment for 3 days
(§6) Following PBMC injections, mice were treated with vehicle or 6-(4-tert-butylphenoxy)pyridin-3-amine or Ruxolitinib starting at day 0. Mice were monitored from 60-85 days for symptoms of GvHD and scored according to a standard clinical scoring system for GvHD (Naserian et al., 2018) (see table 1) and a cumulative clinical score was obtained by addition of clinical score for individual parameters. A maximum score of 6 is measured when reaching endpoint. Cell proliferation assay: The effect of compounds on T cell proliferation was quantified using Cell trace violet (CTV). PBMCs/splenocytes were incubated with CTV for 20 minutes at 37° C. Cells were washed twice with RPMI complete medium. CTV labelled cells were stimulated with anti-CD3 and anti-CD28 antibodies and treated with control or compounds and cultured at 37° C. for 96 hours. The cell division index was measured by flow cytometry.

[5] = tested on: Treg cells (CD4+CD25highFOXP3+); assay: In vivo dosing of C57BL6 mice, Treg cells in spleen; parameters: species or system mouse; details: C57BL6 wild type mice, 60 mg/kg QD
Method: C57BL6 wild type mice were treated with 6-(4-tert-butylphenoxy)pyridin-3-amine at 60 mg/kg dose (QD). […] (*) p<0.05. Each bar represents the mean±SEM (N=3 replicates).
In vivo treatment of mice and pharmacodynamic response: Mice experiments were performed in compliance with authorization to perform animal experiments (VD3323). Briefly, 6-8 weeks old wild type C57Bl6 mice were subcutaneously or intraperitoneally dosed with vehicle or compounds for different durations. Mice were sacrificed, spleens were harvested 24 hours post-last dosing. Splenocytes were analyzed for cell surface and intracellular markers expression using flow cytometry. RNA expression analyses were performed using quantitative real time PCR.
as §2

[6] = tested on: IL-17; assay: Cytokine analysis in allogeneic bone marrow transplant (LEGENDplex): IL-17; type: in vivo, mouse; details: allo-BM+splenocyte transplanted mice, day 36, vs vehicle; FIG. 6
Method: as §4, §5

[7] = tested on: IFNG; assay: ELISA of supernatant from activated human PBMC cultures: IFNG; type: cell-based; details: control 0%
Method: as §1
ELISA assay: Supernatant from activated human PBMC cultures described above was separated from cells at the end of culture time. Key cytokines (IL-6, IFN-γ, IL-17) were quantified using sandwich ELISA reagents set (Diaclone) following manufacturer's instruction manual.

[8] = tested on: activated CD4 T cells; assay: Cell proliferation assay (Cell trace violet), activated CD4 T cells; type: cell-based; details: control 0%
Method: as §6, §2

SMILES: CC(C)(C)c1ccc(Oc2ccc(N)cn2)cc1 [6-(4-tert-butylphenoxy)pyridin-3-amine]
- expansion of Treg cells [1]: 112%
- IL-6 in blood plasma [2]: downregulation
- expansion of Treg cells [3]: expansion of Treg cells
- Cumulative GvHD score [4]: decreased cumulative GvHD score significantly
- Treg cells (CD4+CD25highFOXP3+) number ([5]; p<0.05, FIG. 2a): significantly increased
- Treg cells (CD4+CD25highFOXP3+) frequency ([5]; p<0.05, FIG. 2b): significantly increased
- IL-17 in blood plasma [6]: downregulation
- Percentage downregulation of IFNG [7]: 10%
- Percentage inhibition of CD4 T cells (proliferation) [8]: 81%

From patent US20240269120A1, “Method for Treating an Autoimmune and Inflammatory Disease” (Cellestia Biotech AG, priority 2021, published 2024)
